In ChEMBL document CHEMBL1144852, “Optimization of a dihydropyrrolopyrazole series of transforming growth factor-beta type I receptor kinase domain inhibitors: discovery of an orally bioavailable transforming growth factor-beta receptor type I inhibitor as antitumor agent” (J Med Chem, 2008):
pEC50, pIC50: −log10 of the molar value. Activity calls are given as the source filed them. The calls are words filed in the database; no cut-off is given here.

What was measured:
[1] = molecular target: Tyrosine-protein kinase ZAP-70 (Homo sapiens) (UniProt P43403); assay: Inhibition of ZAP70 at 20 uM
[2] = Metabolic stability in rat microsomes; format: ADME, Microsome
[3] = molecular target: MAP kinase-activated protein kinase 2 (Homo sapiens) (UniProt P49137); assay: Inhibition of MAPKAPK2 at 20 uM
[4] = molecular target: Mitogen-activated protein kinase 13 (Homo sapiens) (UniProt O15264); assay: Inhibition of Sapk4 at 20 uM
[5] = molecular target: Tyrosine-protein kinase Lck (Homo sapiens) (UniProt P06239); assay: Inhibition of Lck at 20 uM
[6] = molecular target: Mitogen-activated protein kinase 1 (Homo sapiens) (UniProt P28482); assay: Inhibition of MAPK1 at 20 uM
Mitogen-activated protein kinase 1 (Homo sapiens), sequence (P28482 whole entry): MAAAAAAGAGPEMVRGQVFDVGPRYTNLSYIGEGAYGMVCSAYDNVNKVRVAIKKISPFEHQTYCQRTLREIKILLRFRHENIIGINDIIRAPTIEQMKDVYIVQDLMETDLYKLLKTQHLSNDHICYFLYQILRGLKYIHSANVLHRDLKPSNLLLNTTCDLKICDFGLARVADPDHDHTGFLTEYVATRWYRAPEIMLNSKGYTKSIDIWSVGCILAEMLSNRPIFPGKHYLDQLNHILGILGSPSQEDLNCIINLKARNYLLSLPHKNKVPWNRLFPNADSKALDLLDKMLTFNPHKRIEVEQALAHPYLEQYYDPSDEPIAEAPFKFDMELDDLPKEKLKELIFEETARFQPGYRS

[7] = molecular target: Cyclin-dependent kinase 1 (Homo sapiens) (UniProt P06493); assay: Inhibition of CDK1 at 20 uM
Mus musculus [8] = assay: Inhibition of TGFbeta type receptor 1 in human Calu6 cells xenografted mouse at 75 mg/kg, po after 4 hrs by IVTI pharmacodynamic assay; format: functional; conditions: Calu-6, 4 h
[9] = molecular target: Ribosomal protein S6 kinase beta-1 (Homo sapiens) (UniProt P23443); assay: Inhibition of p70S6K at 20 uM
[10] = molecular target: Mitogen-activated protein kinase 10 (Homo sapiens) (UniProt P53779); assay: Inhibition of JNK3 at 20 uM
[11] = molecular target: Rho-associated protein kinase 2 (Homo sapiens) (UniProt O75116); assay: Inhibition of Rock2 at 20 uM
[12] = molecular target: Glycogen synthase kinase-3 beta (Homo sapiens) (UniProt P49841); assay: Inhibition of GSK3-beta at 20 uM
Glycogen synthase kinase-3 beta (Homo sapiens), sequence (P49841 whole entry, looked up): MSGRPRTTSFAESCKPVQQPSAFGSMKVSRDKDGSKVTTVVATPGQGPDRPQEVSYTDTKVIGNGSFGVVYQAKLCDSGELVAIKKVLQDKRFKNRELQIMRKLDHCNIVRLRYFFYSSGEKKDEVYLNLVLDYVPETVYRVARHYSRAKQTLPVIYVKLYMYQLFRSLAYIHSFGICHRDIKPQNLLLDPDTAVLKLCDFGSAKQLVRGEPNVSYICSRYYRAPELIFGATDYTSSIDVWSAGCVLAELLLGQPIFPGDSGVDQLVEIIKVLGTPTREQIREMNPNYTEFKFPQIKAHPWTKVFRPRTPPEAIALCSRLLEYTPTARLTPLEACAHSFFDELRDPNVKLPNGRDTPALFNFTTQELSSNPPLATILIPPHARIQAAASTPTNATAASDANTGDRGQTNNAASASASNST

[13] = molecular target: Dual specificity mitogen-activated protein kinase kinase 6 (Homo sapiens) (UniProt P52564); assay: Inhibition of MKK6 at 20 uM
Dual specificity mitogen-activated protein kinase kinase 6 (Homo sapiens), sequence (P52564 whole entry): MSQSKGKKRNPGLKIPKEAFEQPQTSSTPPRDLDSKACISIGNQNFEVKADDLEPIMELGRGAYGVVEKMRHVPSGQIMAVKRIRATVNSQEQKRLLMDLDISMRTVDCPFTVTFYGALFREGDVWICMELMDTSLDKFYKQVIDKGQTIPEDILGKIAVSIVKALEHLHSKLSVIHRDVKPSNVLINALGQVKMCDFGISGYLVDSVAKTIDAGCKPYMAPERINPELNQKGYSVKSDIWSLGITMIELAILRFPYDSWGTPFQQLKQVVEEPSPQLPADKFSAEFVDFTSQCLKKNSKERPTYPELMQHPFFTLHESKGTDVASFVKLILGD

[14] = molecular target: Fibroblast growth factor receptor 3 (Homo sapiens) (UniProt P22607); assay: Inhibition of FGFR3 at 20 uM
[15] = molecular target: Vascular endothelial growth factor receptor 2 (Homo sapiens) (UniProt P35968); assay: Inhibition of KDR at 20 uM
[16] = AUC in rat at 10 mg/kg, po after 24 hrs; format: ADME, organism-based; parameters: time < 24 hr, dose 10 mg/kg, route oral; conditions: plasma
MX1 = assay: Effect on tumor growth delay in human MX1 cells xenografted in mouse administered 75 mg/kg, po twice a day after 7 days of inoculation for 20 days; format: functional, organism-based; parameters: dose 75 mg/kg
[17] = molecular target: RAF proto-oncogene serine/threonine-protein kinase (Homo sapiens) (UniProt P04049); assay: Inhibition of cRaf at 20 uM
[18] = molecular target: 5'-AMP-activated protein kinase subunit beta-1 (Homo sapiens) (UniProt Q9Y478); assay: Inhibition of AMPK at 20 uM
5'-AMP-activated protein kinase subunit beta-1 (Homo sapiens), sequence (Q9Y478 whole entry): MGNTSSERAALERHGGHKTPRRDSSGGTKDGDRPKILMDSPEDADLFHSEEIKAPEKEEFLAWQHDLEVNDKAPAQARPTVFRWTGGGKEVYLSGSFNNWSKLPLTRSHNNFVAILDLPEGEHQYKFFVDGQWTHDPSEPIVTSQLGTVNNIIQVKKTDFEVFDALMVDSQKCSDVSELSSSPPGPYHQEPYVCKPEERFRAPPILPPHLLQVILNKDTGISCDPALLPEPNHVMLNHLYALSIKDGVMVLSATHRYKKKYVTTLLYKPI

[19] = molecular target: Tyrosine-protein kinase Blk (Homo sapiens) (UniProt P51451); assay: Inhibition of Blk at 20 uM
Tyrosine-protein kinase Blk (Homo sapiens), sequence (P51451 2-505 limits assumed): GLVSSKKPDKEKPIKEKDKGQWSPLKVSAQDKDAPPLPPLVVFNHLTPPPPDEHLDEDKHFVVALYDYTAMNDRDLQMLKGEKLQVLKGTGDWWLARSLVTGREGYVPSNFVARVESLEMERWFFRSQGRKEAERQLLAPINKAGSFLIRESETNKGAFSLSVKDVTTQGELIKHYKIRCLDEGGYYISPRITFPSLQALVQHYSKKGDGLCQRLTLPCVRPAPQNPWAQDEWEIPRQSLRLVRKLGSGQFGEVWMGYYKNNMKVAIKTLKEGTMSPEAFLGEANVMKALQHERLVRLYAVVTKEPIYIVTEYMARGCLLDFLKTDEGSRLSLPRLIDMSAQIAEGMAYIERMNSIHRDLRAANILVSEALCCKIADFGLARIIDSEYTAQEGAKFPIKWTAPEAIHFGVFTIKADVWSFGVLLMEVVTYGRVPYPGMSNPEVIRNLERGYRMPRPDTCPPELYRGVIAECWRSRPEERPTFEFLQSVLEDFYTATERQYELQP

[20] = molecular target: Tyrosine-protein kinase Fyn (Homo sapiens) (UniProt P06241); assay: Inhibition of Fyn at 20 uM
[21] = molecular target: Mitogen-activated protein kinase 11 (Homo sapiens) (UniProt Q15759); assay: Inhibition of Sapk2-beta at 20 uM
Mitogen-activated protein kinase 11 (Homo sapiens), sequence (Q15759 whole entry): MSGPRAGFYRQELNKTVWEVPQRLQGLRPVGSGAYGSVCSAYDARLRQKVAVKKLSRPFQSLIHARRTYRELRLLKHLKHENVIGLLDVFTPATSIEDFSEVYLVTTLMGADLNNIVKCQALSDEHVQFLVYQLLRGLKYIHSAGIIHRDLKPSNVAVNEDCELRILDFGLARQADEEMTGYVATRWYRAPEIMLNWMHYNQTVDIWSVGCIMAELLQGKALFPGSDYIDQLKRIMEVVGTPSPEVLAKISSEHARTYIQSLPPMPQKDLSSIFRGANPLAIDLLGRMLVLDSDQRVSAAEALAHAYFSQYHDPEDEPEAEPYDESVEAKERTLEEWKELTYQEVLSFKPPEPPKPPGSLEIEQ

[22] = molecular target: Cyclin-dependent kinase 2 (Homo sapiens) (UniProt P24941); assay: Inhibition of CDK2 at 20 uM
[23] = Inhibition of JNK1-alpha at 20 uM
[24] = molecular target: MAP kinase-activated protein kinase 5 (Homo sapiens) (UniProt Q8IW41); assay: Inhibition of PRAK at 20 uM
[25] = molecular target: Dual specificity mitogen-activated protein kinase kinase 4 (Homo sapiens) (UniProt P45985); assay: Inhibition of MKK4 at 20 uM
Dual specificity mitogen-activated protein kinase kinase 4 (Homo sapiens), sequence (P45985 whole entry): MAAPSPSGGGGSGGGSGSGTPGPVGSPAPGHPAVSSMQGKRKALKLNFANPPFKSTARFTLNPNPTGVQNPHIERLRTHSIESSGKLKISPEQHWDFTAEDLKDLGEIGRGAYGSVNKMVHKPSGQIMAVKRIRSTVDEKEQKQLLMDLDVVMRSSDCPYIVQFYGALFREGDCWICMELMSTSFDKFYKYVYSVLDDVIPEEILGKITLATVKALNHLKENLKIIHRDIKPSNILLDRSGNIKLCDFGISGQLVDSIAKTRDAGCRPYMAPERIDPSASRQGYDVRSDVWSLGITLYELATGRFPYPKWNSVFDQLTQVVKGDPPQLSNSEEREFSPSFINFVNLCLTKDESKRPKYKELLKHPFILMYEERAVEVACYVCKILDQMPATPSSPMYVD

Mus musculus [26] = assay: Inhibition of TGFbeta type receptor 1 in human Calu6 cells xenografted mouse at 50 mg/kg, po by single point IVTI assay; format: functional, Calu-6; parameters: scale not given: the % may be the effect or the level left
[27] = molecular target: Ribosomal protein S6 kinase alpha-5 (Homo sapiens) (UniProt O75582); assay: Inhibition of MSK1 at 20 uM
Ribosomal protein S6 kinase alpha-5 (Homo sapiens), sequence (O75582 whole entry, looked up): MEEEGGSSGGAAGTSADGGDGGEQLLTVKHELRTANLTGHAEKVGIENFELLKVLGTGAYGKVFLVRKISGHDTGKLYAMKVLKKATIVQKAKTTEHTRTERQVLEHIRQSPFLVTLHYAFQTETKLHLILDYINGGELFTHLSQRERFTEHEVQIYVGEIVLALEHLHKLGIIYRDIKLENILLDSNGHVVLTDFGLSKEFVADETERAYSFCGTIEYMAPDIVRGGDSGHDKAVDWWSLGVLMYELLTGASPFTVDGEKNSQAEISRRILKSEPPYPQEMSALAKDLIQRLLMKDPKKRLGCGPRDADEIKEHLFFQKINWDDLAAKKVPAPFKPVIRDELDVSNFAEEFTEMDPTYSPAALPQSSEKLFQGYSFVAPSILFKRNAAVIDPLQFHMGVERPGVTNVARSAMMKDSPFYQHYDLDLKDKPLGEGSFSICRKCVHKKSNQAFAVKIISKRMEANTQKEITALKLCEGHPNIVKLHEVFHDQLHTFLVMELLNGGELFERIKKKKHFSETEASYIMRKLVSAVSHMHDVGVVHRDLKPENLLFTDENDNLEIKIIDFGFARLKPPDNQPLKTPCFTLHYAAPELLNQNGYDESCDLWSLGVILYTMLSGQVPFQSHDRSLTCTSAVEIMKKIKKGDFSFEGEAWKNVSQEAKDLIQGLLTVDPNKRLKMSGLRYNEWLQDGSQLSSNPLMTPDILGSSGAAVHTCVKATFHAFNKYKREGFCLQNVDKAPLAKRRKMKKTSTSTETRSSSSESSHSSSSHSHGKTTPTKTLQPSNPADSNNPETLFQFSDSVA

[28] = molecular target: Dual specificity mitogen-activated protein kinase kinase 1 (Homo sapiens) (UniProt Q02750); assay: Inhibition of Mek1 at 20 uM
Caco-2 = assay: Permeability from apical to basolateral side of human Caco-2 cell membrane; format: ADME, cell-based
[29] = molecular target: Protein kinase C alpha type (Homo sapiens) (UniProt P17252); assay: Inhibition of PKCalpha at 20 uM
[30] = molecular target: RAC-alpha serine/threonine-protein kinase (Homo sapiens) (UniProt P31749); assay: Inhibition of PKBalpha at 20 uM
[31] = molecular target: Serine/threonine-protein kinase Chk2 (Homo sapiens) (UniProt O96017); assay: Inhibition of Chk2 at 20 uM
[32] = molecular target: Mitogen-activated protein kinase 9 (Homo sapiens) (UniProt P45984); assay: Inhibition of JNK2-alpha-2 at 20 uM
[33] = Oral bioavailability in rat at 10 mg/kg after 24 hrs; format: ADME, organism-based; conditions: in vivo
[34] = molecular target: Serine/threonine-protein kinase N2 (Homo sapiens) (UniProt Q16513); assay: Inhibition of PRK2 at 20 uM
[35] = molecular target: Proto-oncogene tyrosine-protein kinase Src (Homo sapiens) (UniProt P12931); assay: Inhibition of cSRC at 20 uM
[36] = molecular target: Protein kinase C delta type (Homo sapiens) (UniProt Q05655); assay: Inhibition of PKCdelta at 20 uM
Protein kinase C delta type (Homo sapiens), sequence (Q05655 whole entry, looked up): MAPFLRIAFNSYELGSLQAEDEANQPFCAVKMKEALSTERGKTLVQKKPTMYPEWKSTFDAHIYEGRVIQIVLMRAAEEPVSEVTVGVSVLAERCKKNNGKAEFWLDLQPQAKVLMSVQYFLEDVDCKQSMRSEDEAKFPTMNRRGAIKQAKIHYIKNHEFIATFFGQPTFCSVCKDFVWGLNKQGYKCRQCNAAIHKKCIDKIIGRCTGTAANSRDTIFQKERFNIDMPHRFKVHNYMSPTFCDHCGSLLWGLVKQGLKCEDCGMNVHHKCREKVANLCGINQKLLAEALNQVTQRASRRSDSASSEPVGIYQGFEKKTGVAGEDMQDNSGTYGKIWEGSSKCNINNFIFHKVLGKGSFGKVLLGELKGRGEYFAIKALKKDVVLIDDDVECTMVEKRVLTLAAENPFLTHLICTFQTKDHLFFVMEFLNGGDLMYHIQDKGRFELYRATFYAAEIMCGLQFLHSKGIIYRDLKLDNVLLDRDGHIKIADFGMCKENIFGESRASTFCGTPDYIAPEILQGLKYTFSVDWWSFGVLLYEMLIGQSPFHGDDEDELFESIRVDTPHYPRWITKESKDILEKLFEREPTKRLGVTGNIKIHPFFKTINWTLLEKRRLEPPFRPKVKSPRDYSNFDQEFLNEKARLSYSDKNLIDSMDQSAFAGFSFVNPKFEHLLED

[37] = molecular target: Dual specificity mitogen-activated protein kinase kinase 7 (Homo sapiens) (UniProt O14733); assay: Inhibition of MKK7-beta at 20 uM
NIH3T3 = assay: Antiproliferative activity against mouse NIH3T3 cells by [3H]thymidine assay; format: functional, cell-based
[38] = Inhibition of PKA at 20 uM
[39] = molecular target: Protein kinase C beta type (Homo sapiens) (UniProt P05771); assay: Inhibition of PKC-beta-2 at 20 uM
[40] = molecular target: Serine/threonine-protein kinase Chk1 (Homo sapiens) (UniProt O14757); assay: Inhibition of Chk1 at 20 uM
Serine/threonine-protein kinase Chk1 (Homo sapiens), sequence (O14757 whole entry): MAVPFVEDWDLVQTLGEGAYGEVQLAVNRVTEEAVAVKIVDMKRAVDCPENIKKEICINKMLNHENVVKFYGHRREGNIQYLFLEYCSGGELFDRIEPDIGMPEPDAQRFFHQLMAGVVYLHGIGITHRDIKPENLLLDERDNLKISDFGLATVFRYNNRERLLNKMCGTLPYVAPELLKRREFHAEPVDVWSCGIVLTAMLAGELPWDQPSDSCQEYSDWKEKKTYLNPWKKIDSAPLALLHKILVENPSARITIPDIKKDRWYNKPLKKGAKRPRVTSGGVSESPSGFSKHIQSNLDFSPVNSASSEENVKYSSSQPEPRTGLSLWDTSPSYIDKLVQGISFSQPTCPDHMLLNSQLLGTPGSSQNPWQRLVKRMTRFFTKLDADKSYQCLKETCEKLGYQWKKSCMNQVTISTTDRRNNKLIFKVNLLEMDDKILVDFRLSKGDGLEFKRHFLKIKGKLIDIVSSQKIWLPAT

[41] = molecular target: Mitogen-activated protein kinase 14 (Homo sapiens) (UniProt Q16539); assay: Inhibition of Sapk2-alpha at 20 uM
Mitogen-activated protein kinase 14 (Homo sapiens), sequence (Q16539 whole entry): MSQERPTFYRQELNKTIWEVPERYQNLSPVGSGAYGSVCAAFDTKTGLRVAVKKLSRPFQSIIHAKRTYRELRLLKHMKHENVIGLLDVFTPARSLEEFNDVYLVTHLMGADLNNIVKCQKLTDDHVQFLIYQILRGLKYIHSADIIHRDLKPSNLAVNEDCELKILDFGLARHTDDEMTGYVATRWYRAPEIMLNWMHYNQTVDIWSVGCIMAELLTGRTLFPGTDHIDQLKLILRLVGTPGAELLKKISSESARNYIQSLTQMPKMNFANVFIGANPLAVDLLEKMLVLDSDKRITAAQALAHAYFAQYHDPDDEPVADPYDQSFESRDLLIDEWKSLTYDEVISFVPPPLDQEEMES

Mus musculus [42] = assay: Inhibition of TGFbeta type receptor 1 in orally dosed human Calu6 cells xenografted mouse by IVTI […] assay; format: functional, organism-based; conditions: Calu-6
[43] = Inhibition of CK2 at 20 uM
[44] = molecular target: Mitogen-activated protein kinase 12 (Homo sapiens) (UniProt P53778); assay: Inhibition of Sapk3 at 20 uM
Liver microsomes = assay: Metabolic stability in human liver microsomes; format: ADME, Microsome
[45] = Inhibition of CaMK2 at 20 uM
[46] = molecular target: Serine/threonine-protein kinase Sgk1 (Homo sapiens) (UniProt O00141); assay: Inhibition of SGK at 20 uM

Compound c1ccc(-c2nn3c(c2-c2ccnc4cc(OCCN5CCOCC5)ccc24)CCC3)nc1 has an inhibition [1] of under 50%, a Stability [2] of 58% and an inhibition [3] of under 50%. It also gave an inhibition [4] of under 50%, an inhibition [5] of 69% and an inhibition [6] of 31%. It also gave an inhibition [7] of under 50%, an inhibition in vivo at 75 mg/kg (Mus musculus [8]) of 48% and an inhibition [9] of under 50%. For the same compound, the inhibition [10] was 68%, the inhibition [11] was under 50% and the inhibition [12] was under 50%. For the same compound, the inhibition [13] was 80%, the inhibition [14] was under 50% and the inhibition [15] was under 50%. For the same compound, the AUC at 24 h [16] was 1000 ng·h/mL, the Activity (MX1) was “Active” and the inhibition [17] was under 50%. It also gave an inhibition [18] of under 50%, an inhibition [19] of under 50% and an inhibition [20] of 58%. It also gave an inhibition [21] of 47%, an inhibition [22] of under 50% and an inhibition [23] of under 50%. The inhibition [24] was under 50%, the inhibition [25] was under 50% and the Activity (Mus musculus [26]) was 56%. For the same compound, the inhibition [27] was under 50%, the inhibition [28] was under 50% and the permeability (Caco-2) was 28%. The inhibition [29] was under 50%, the inhibition [30] was under 50% and the inhibition [31] was under 50%. It also gave an inhibition [32] of under 50%, a bioavailability [33] of 21% and an inhibition [34] of under 50%. It also gave an inhibition [35] of under 50%, an inhibition [36] of under 50% and an inhibition [37] of under 50%. For the same compound, the pIC50 (NIH3T3) was 6.68, the inhibition [38] was under 50% and the inhibition [39] was under 50%. The inhibition [40] was under 50%, the inhibition [41] was 89% and the pEC50 (Mus musculus [42]) was 6.63. The inhibition [43] was under 50%, the inhibition [44] was under 50% and the Stability (Liver microsomes) was 27%. For the same compound, the inhibition [45] was under 50% and the inhibition [46] was under 50%.
